Test results as given in patent US6669951B2, “Compositions and methods for enhancing drug delivery across and into epithelial tissues” (CellGate, Inc., priority 1999, dated 2003).
Like-named read-outs stand apart in the source and are kept apart here.

Assays:
[1] = tested on: epithelia of the gastrointestinal tract; assay: Gastrointestinal absorption protocol (histology); type: in vivo, mouse
Method: Experiments were performed on 8- to 10-week-old female Swiss Webster mice purchased from Taconic (Germantown, N.Y.). Mice were anesthetized with Nembutal and a midline incision was made along the abdomen. Intestines were measured, tied off at both ends of the desired section with sutures, and biotinylated peptides were injected into the lumen (approximately 100λ/inch). After a fifteen minute incubation, the tissue was removed and the lumen was gently washed with PBS.
Immediately following incubation with biotinylated peptides, the anesthetized rodents were sacrificed by cervical dislocation and the tied off sections of the GI tract were removed. The lumens of the various sections were filled with OCT using a plastic tipped syringe, immersed in OCT filled boats, and snap frozen in a 2-methyl-butane/dry ice solution. Frozen sections were allowed to warm slightly and 2 mm thick sagital cuts were made using a steel razor blade. The cuts were placed into OCT molds and snap frozen in a 2-methyl-butane/dry ice solution. Sections (5 μm) were cut on the cryostat, fixed in acetone at 4° C. for 10 minute, and allowed to air dry. After rehydration in PBS for 5 minutes, sections were blocked with normal horse serum, washed, incubated with streptavidin-FITC (20 μg/ml) for 30 minutes, washed, and mounted with mounting medium containing propidium iodide (PI).
After fifteen minutes of exposure, the relevant section of tissue was dissected, frozen, sectioned, and stained with Streptavidin fluorescein to define the location of the biotinylated peptide, and propidium iodide to counterstain all the nuclei in the section.

[2] = tested on: squamous epithelia of the oral cavity; assay: Penetration into squamous epithelia of the oral cavity; type: in vivo, mouse; conditions: fifteen minutes
Source text: To determine whether CellGate transporters could enter the squamous epithelia of the oral cavity, mice were anesthetized with Nembutal, their heads tipped to one side and solutions of the biotinylated peptides were placed in their mouths. After fifteen minutes the liquid was removed by pipette.
The capacity of the transporters to enter the squamous epithelial layers of the oral cavity was examined. A mouse was anesthetized, its head was tipped so that a solution of biotinylated r9 could be administered. The animal was kept in this position for fifteen minutes, at which time it was sacrificed, and the tongue and cheek were dissected, frozen, sectioned, stained with streptavidin-fluorescein, and counterstained with propidium iodide.

[3] = tested on: human skin grafts on SCID mice; conditions: in vivo
Method: Samples (100 μl) were applied as a liquid within excipient and prevented from dispersing by a Vaseline™ barrier and allowed to penetrate for fifteen minutes. At the end of this period animal was sacrificed, the relevant section of skin was excised, embedded in mounting medium (OCT) and frozen. […] Slides were analyzed by fluorescent microscopy.

[4] = tested on: CD3+ T cells in inflamed skin; conditions: mouse, in vivo
[5] = Drug blood levels after intracolonic injection (LC MS MS); type: in vivo, Wistar rats; conditions: intracolonic in PBS
Method: Wistar rats, females of approximately 200-300 g (Simonsen, Gilroy, Calif.), were anesthetized, their abdomens were shaved, midline incisions were made, and a one-half inch section of the ascending colon in each animal was tied off with sutures. Taxol and cyclosporin (5 mg/kg) were injected as solutions in a 1:1 v/v Cremophor EL:ethanol mixture, whereas equivalent molar amounts of the r7 conjugates were injected in PBS. In all cases, the volume injected was approximately 500λ. The colon was placed back into the cavity, and the incision was closed using sutures.
(§1) Clotting was inhibited by transferring the blood to glass tubes containing 100λ of 0.5% EDTA, and the blood was frozen.
Either taxol or cyclosporin was extracted from the whole blood using a modification of literature procedures. Briefly, whole blood (100λ) was transferred to a screw capped glass tube containing five mls of diethyl ether. The sample was vortexed vigorously for two minutes, centrifuged, and frozen in dry ice/methanol. The ethereal layer was transferred to another glass tube and the ether was evaporated. […] Samples were placed into a Perkin-Elmer series 200 autosampler and sequencially injected onto a C18 reverse column at 70° C. connected to a Shimadzu HPLC system, eluted with 70% methanol, 30% aqueous ammonium formate buffer, and the effluent was analyzed on a PE Sciex API 3000 tandem mass spectrometer.

[6] = Half-life / release of conjugate in buffer; type: physicochemical; conditions: for half-life: buffer
[7] = tested on: IL-2 secretion by Jurkat cells; assay: Inhibition of IL-2 secretion, PMA/ionomycin stimulated; type: cell-based, human
Method: T cells subsequently were stimulated to produce IL-2 by addition of 10 ng/ml PMA (Sigma, St. Louis, Mo.) and 1 μM ionomycin (CalBiochem, San Diego, Calif.). Cultures were incubated overnight at 37° C. and supernatants were collected and IL-2 was measured using a fluorescent ELISA. Briefly, plates were coated with 4 μg/ml anti-human IL-2 antibody (BD Pharmingen, San Diego, Calif.), blocked with PBS containing 10% FBS for 1 hour at room temperature, washed, and supernatants added and incubated for 1 hour. Media was removed and biotinylated anti-human IL-2 (1.6 μg/ml), was added for one hour. The plates were washed, and then europium labeled streptavidin (0.04 ng/ml) was added for one hour. After another wash, enhancement solution was added and the resulting fluorescence was measured using a Wallac plate reader (Wallac, Turku, Finland).
See R. Wiskocil, et al., J Immunol 134, 1599-603 (1985).

[8] = tested on: ear inflammation in Balb/c mice; assay: Murine contact dermatitis (DNFB), ear inflammation; type: in vivo, mouse
Method: Balb/c (6-7 weeks) mice were painted on the abdomen with 100 μl of 0.7% DNFB in acetone olive oil (95:5). Three days later both ears of the animals were restimulated with 0.5% DNFB in acetone. […] Ear inflammation was measured 24 hours after restimulation using a spring loaded caliper. The percent reduction of inflammation was calculated using the following formula […], where t=thickness of the treated ear, n=the thickness of a normal untreated ear, and u=thickness of an inflamed ear without any treatment. N=20 animals in each group.

[9] = Blood levels after buccal delivery; type: in vivo, rat; conditions: 5 mg/kg in Cremophor EL:ethanol 1:1
Source text: as §1

[10] = cited from earlier work
skin of nude mice = assay: Penetration of Cu-DTPA complexes into skin of nude mice; type: in vivo, mouse; conditions: 1 μM to 1 mM, abdominal region, 15, 30, 45 minutes
Source text: As controls, an equimolar amount of the Cu-DTPA complex was spotted onto the abdominal region.

For `N=C(N)NCCC[C@@H](NC(=O)[C@@H](CCCNC(=N)N)NC(=O)[C@@H](CCCNC(=N)N)NC(=O)[C@@H](CCCNC(=N)N)NC(=O)[C@@H](CCCNC(=N)N)NC(=O)[C@@H](CCCNC(=N)N)NC(=O)[C@@H](CCCNC(=N)N)NC(=O)[C@@H](CCCNC(=N)N)NC(=O)[C@@H](CCCNC(=N)N)NC(=O)CCCCCNC(=O)CCCC[C@@H]1SC[C@@H]2NC(=O)N[C@@H]21)C(N)=O` [bio aca r9 CONH2], the staining of duodenum ([1]; 100 μM injected into lumen, fifteen minutes) was “no detectable staining over background was observed”, the “staining of ascending and transverse colon” value ([1]; 100 μM, fifteen minutes) was “stained all surface areas of the villi, and penetrated several cell layers” and the staining of ileum ([1]; 100 μM, fifteen minutes) was “first sign of uniform staining”. For the same compound, the staining of jejunum ([1]; 100 μM, fifteen minutes) was “Poor staining”, the “uptake along the GI tract” value ([1]; mouse, in vivo) was “uptake increasing with distance from the gastric pylorus” and the “penetration into cheek and tongue” value [2] was “quickly and efficiently penetrated multiple layers of the epithelia”.

With `C/C=C/C[C@@H](C)[C@@H](OC(=O)CSC[C@H](NC(=O)[C@@H](CCCNC(=N)N)NC(=O)[C@@H](CCCNC(=N)N)NC(=O)[C@@H](CCCNC(=N)N)NC(=O)[C@@H](CCCNC(=N)N)NC(=O)[C@@H](CCCNC(=N)N)NC(=O)[C@@H](CCCNC(=N)N)NC(=O)[C@@H](CCCNC(=N)N)NC(=O)CCCCCNC(=O)CCCC[C@@H]1SC[C@@H]2NC(=O)N[C@@H]21)C(N)=O)[C@H]1C(=O)N[C@@H](CC)C(=O)N(C)CC(=O)N(C)[C@@H](CC(C)C)C(=O)N[C@@H](C(C)C)C(=O)N(C)[C@@H](CC(C)C)C(=O)N[C@@H](C)C(=O)N[C@H](C)C(=O)N(C)[C@@H](CC(C)C)C(=O)N(C)[C@@H](CC(C)C)C(=O)N(C)[C@@H](C(C)C)C(=O)N1C` [biotin r7 CsA, B-aca-r7-Cys-O-acyl-Cyclosporin A] the “penetration into human skin” value [3] was “penetrated human epidermis and dermis” and the “presence in infiltrating T cells of inflamed skin” value [4] was “found in all CD3[+] T cells in the tissue”.

With `CC(=O)N[C@@H](CSCC(=O)O[C@@H](C(=O)O[C@H]1C[C@@]2(O)[C@@H](OC(=O)c3ccccc3)[C@@H]3[C@]4(OC(C)=O)CO[C@@H]4C[C@H](O)[C@@]3(C)C(=O)[C@H](OC(C)=O)C(=C1C)C2(C)C)[C@@H](NC(=O)c1ccccc1)c1ccccc1)C(=O)N[C@H](CCCNC(=N)N)C(=O)N[C@H](CCCNC(=N)N)C(=O)N[C@H](CCCNC(=N)N)C(=O)N[C@H](CCCNC(=N)N)C(=O)N[C@H](CCCNC(=N)N)C(=O)N[C@H](CCCNC(=N)N)C(=O)N[C@H](CCCNC(=N)N)C(N)=O` [compound 14] the “blood levels of taxol” value [5] was “did not result in significant blood levels of taxol within five hours” and the half-life ([6]; PBS, pH 7.4 at 37° C., read-out: half life (converted)) was 5 h.

In the case of `C/C=C/C[C@@H](C)[C@@H](OC(=O)CN(Cc1ccccc1)C(=O)CNCC(=O)N[C@@H](CCCNC(=N)N)C(=O)N[C@@H](CCCNC(=N)N)C(=O)N[C@@H](CCCNC(=N)N)C(=O)N[C@@H](CCCNC(=N)N)C(=O)N[C@@H](CCCNC(=N)N)C(=O)N[C@@H](CCCNC(=N)N)C(=O)N[C@@H](CCCNC(=N)N)C(N)=O)[C@H]1C(=O)N[C@@H](CC)C(=O)N(C)CC(=O)N(C)[C@@H](CC(C)C)C(=O)N[C@@H](C(C)C)C(=O)N(C)[C@@H](CC(C)C)C(=O)N[C@@H](C)C(=O)N[C@H](C)C(=O)N(C)[C@@H](CC(C)C)C(=O)N(C)[C@@H](CC(C)C)C(=O)N(C)[C@@H](C(C)C)C(=O)N1C` [releasable R7 CsA], the “inhibition of IL-2 secretion” value ([7]; added 12 hours prior to PMA/ionomycin) is reported as “dose dependent inhibition was observed”, the “EC50 relative to CsA dissolved in alcohol” value ([7]; added at the same time) is reported as “approximately two” and the “reduction in ear inflammation” value ([8]; 0.01% topical) is reported as 40.9%±3.3. The “reduction in ear inflammation” value ([8]; 0.1% topical) was 64.8%±4.0, the “reduction in inflammation in the untreated ear” value ([8]; 1%) was “No reduction in inflammation was seen in the untreated ear” and the “reduction in ear inflammation” value ([8]; 1% topical, 1, 5 and 20 h after restimulation, measured 24 hours) was 73.9%±4.0. The pH dependent stability ([6]; absence of serum) was “stable at acidic pH, but labile at physiological pH in the absence of serum” and the half-life ([6]; PBS pH 7.4 (37° C. where stated), read-out: half-life) was 1.5 h.

In the case of `CC(=O)O[C@H]1C(=O)[C@@]2(C)[C@H]([C@H](OC(=O)c3ccccc3)[C@]3(O)C[C@H](OC(=O)[C@H](O)[C@@H](NC(=O)c4ccccc4)c4ccccc4)C(C)=C1C3(C)C)[C@]1(OC(C)=O)CO[C@@H]1C[C@@H]2O` [taxol, paclitaxel], the “appearance of taxol in blood after buccal administration” value [9] is reported as “appeared in the blood stream by the first time point”.

For `CC(=O)O[C@@]12CO[C@@H]1C[C@H](O)[C@@]1(C)C(=O)[C@H](O)C3=C(C)[C@@H](OC(=O)[C@H](O)[C@@H](NC(=O)OC(C)(C)C)c4ccccc4)C[C@@](O)([C@@H](OC(=O)c4ccccc4)[C@H]21)C3(C)C` [taxotere], the water solubility [10] is listed as 6 to 7 µg/mL.

With “Copper-diethylenetriaminepentaacetic Acid Complex [Cu-DTPA]” the “colour on skin after wiping off” value (skin of nude mice) was “not where the Cu-DTPA alone was spotted”.
